Measured values published in patent EP0429304A2, “Pyridone-carboxylic acid derivatives and their use as veterinary medicines” (SHIONOGI SEIYAKU KABUSHIKI KAISHA trading under the name of …, priority 1989, dated 1991).

What was measured:
Experiment in all cases: In vitro sensitivity test (liquid dilution method)
Assay type in all cases: cell-based
Conditions in all cases: 37°C, 7 days
[1] = system: Mycoplasma gallisepticum (MG) T-7-T, TS-resistant strain isolated from the field
[2] = system: Mycoplasma gallisepticum (MG) S6
[3] = system: Mycoplasma synoviae (MS) 1853
Procedure, shortened: (§1)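 Read-out is visual growth after incubation. Conditions were 37°C for 7 days in Frey medium (12 % pig-serum, 0.01 % βNAD; liquid dilution) for MS, and 37°C for 20 to 24 hours on Mueller Hinton agar for S.au. P.pis used 25°C, 40 to 48 hours, on 1.5 % NaCl heart infusion agar.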

[4] = system: Mycoplasma hyopneumoniae (Mh) ST-11
[5] = system: Mycoplasma synoviae (MS) F10-2as
Procedure, shortened: as §1

Cl.Nc1c(F)c(N2C[C@@H]3CC[C@@H](N)[C@@H]3C2)c(F)c2c1c(=O)c(C(=O)O)cn2C1CC1 (relative stereo) [I-16]
In vitro Sensitivity Test MG T-7-T [1]: 0.00313 µg/mL | In vitro Sensitivity Test MG S6 [2]: <0.0313 µg/mL | In vitro Sensitivity Test MS 1853 [3]: 0.39 µg/mL | In vitro Sensitivity Test Mh ST-11 [4]: <0.025 µg/mL | In vitro Sensitivity Test MS F10-2as [5]: 0.2 µg/ml
